From US20230355547A1, “STABILIZATION OF VITAMIN A IN A NUTRITIONAL SOLUTION” (BAXTER INTERNATIONAL INC., priority 2020, published 2023)

Test: Impact of dissolved oxygen on the stability of vitamin A in a 10% soybean lipid emulsion (Example 4)
Assay type: physicochemical
Details: more than 6 months at 40° C., independently of light exposure
Text: Accordingly, at an oxygen level of about 0.300 ppm vitamin A after 6 months is no longer considered stable, i.e. recovery drops below 80%.
Various methods can be used to determine the DO content of a given solution. Generally, electrochemical or optical sensors are used for determining the DO concentration according to the invention. A preferred method comprises using a fiber-optic oxygen meter such as MICROX TX3, which is a single-channel, temperature-compensated oxygen meter with fiber-optic trace oxygen microsensors based on a glass fiber (e.g. 140 μm). […] For data visualization during measurements, the oxygen meter is connected to a LCD & Data-Logger Unit.
The stability of vitamin A was tested in a 10% soybean lipid emulsion having a peroxide level of below 5 milliequivalents (mEq) O2/kg. The lipid emulsion contained vitamin A in a concentration of 1 dd/25 mL, as well as vitamin E in a concentration of 1 dd/25 mL and the pH was adjusted to 5.9 with HCl.
FIG. 2 depicts the dependency of vitamin A recovery on the presence of dissolved oxygen.

vitamin A
stability in the presence of oxygen of above 0.3 ppm: not stable
